From patent publication US12319655B2, “RAF kinase inhibitors and methods of use thereof” (Deciphera Pharmaceuticals, LLC, priority 2021, dated 2025)

Legend:
[1] = test system: A375 cells; assay: A375 Cell Proliferation Assay (1); format: cell-based; details: Homo sapiens, A-375
Experimental: A375 Cell Proliferation Assay (1)
(§1) A375 cells (catalog (#CRL-1619) are obtained from the American Type Culture Collect (ATTC, Manassas, VA). Briefly, cells were grown in DMEM High Glucose supplemented with 10% characterized fetal bovine serum (Invitrogen, Carlsbad, CA) and 1% Penicillin/Streptomycin/L-Glutamine at 37° C., 5% CO2, and 95% humidity. Cells are expanded until reaching 70-95% confluency at which point they are sub-cultured or harvested for assay use. A serial dilution of test compound is dispensed into a 96-well black clear bottom plate in triplicate. Two thousand five hundred cells are added per well in 200 μL complete growth medium in the 96-well plate. Plates are incubated for 67-72 h at 37° C., 5% CO2, and 95% humidity. At the end of the incubation, 40 μL of a 440 μM solution of resazurin (Sigma, St. Louis, MO) in PBS is added to each well of the plate and plates are incubated for an additional 5-6 h at 37° C., 5% CO2, and 95% humidity. Plates are read on a Synergy2 or equivalent reader (Biotek, Winooski VT) using an excitation of 540 nm and an emission of 600 nm. Data is analyzed using Prism software (GraphPad, San Diego, CA) to calculate IC50 values.

[2] = biological target: C-Raf kinase (SEQ. ID NO: 3) (Homo sapiens (Human), UniProt P04049, Y340D/Y341D); assay: Biochemical Assay for C-Raf (1); details: Table J, assay version (1); read-out: CRAF (1) IC50
Method in brief: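 Coupled pyruvate kinase/LDH assay tracking NADH oxidation at 340 nm, with 0.43 nM C-Raf, 30.1 nM MEK and 1 mM ATP in pH 7.5 Tris buffer (15 mM MgCl2, 1% DMSO final). Read continuously for 6 h at 30 °C, rate taken from the 4–5 h window. IC50 from four-parameter fit of percent inhibition.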

[3] = biological target: A-Raf kinase (SEQ. ID No: 1) (Homo sapiens (Human), UniProt P10398, Y301D/Y302D); assay: Biochemical Assay for A-Raf (1); details: Table J, assay version (1); read-out: ARAF (1) IC50
Method in brief: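 A-Raf Y301D/Y302D at 5.55 nM phosphorylates 30.1 nM MEK with 1 mM ATP in pH 7.5 Tris buffer, 1% DMSO. Activity was read continuously as NADH oxidation at 340 nm in a pyruvate kinase/lactate dehydrogenase coupled system for 6 h at 30 °C. Rates from 4–5 h were converted to percent inhibition, and IC50 came from a four-parameter fit.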

[4] = test system: H2405 cells; assay: H2405 Cell Proliferation Assay (1); format: cell-based; details: Homo sapiens, NCI-H2405
Experimental: H2405 Cell Proliferation Assay (1)
as §1, with “H2405” for “A375”, “#CRL-5994)” for “(#CRL-1619)”, “RPMI 1640” for “DMEM High Glucose”, “5%” for “10%”, “Three” for “Two”, “thousand” for “thousand five hundred”

[5] = biological target: B-Raf kinase (SEQ. ID NO: 2) (Homo sapiens (Human), UniProt P15056); assay: Biochemical Assay for B-Raf (1); details: Table J, assay version (1); read-out: BRAF (1) IC50
Method in brief: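 Continuous PK/LDH-coupled NADH oxidation assay, A340 read for 6 h at 30° C., with 0.13 nM B-Raf, 30.1 nM MEK substrate and 1 mM ATP in Tris pH 7.5, MgCl2, DTT, detergents, 1% DMSO. Rate taken from 4–5 h window; percent inhibition vs no-compound and known-inhibitor controls; four-parameter fit gives IC50.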

[6] = test system: Miapaca-2 cells; assay: MiaPaca-2 Cell Proliferation Assay (1); format: cell-based; details: Homo sapiens, MIA PaCa-2, single agent, read-out: MiaPaca2 (1) IC50
Experimental: MiaPaca-2 Cell Proliferation Assay (1)
as §1, with “Miapaca-2 cells” for “A375 cells”, “(catalog #CRL-1420)” for “(catalog (#CRL-1619)”, “DMEM” for “DMEM High Glucose”, “Carlsbad, CA), 2.5% New Zealand sourced horse serum” for “Carlsbad, CA)”, “triplicate. Three” for “triplicate. Two”, “thousand” for “thousand five hundred”

[7] = test system: WM3928 cells; assay: WM3928 Cell Proliferation Assay (1); format: cell-based
Experimental: WM3928 Cell Proliferation Assay (1)
WM3928 cells (#WM3928-01-0001) are obtained from Rockland Immunochemicals Inc (Gilbertsville, PA). Briefly, cells were grown in MCDB 153 medium (Sigma, #M7403, St. Louis, MO) supplemented with 20% Leibovitz's L-15 (ThermoFisher #11415-064, Waltham, MA), 2% heat inactivated fetal bovine serum (ThermoFisher, #A3840001, Waltham, MA), 5 μg/mL Insulin (Bovine Pancreas) (Sigma, #I0516, St. Louis, MO), 1.68 mM Calcium Chloride (Sigma, #C-34006, St. Louis, MO) and 1% Penicillin/Streptomycin/L-Glutamine (ThermoFisher #10378016, Waltham, MA) at 37° C., 5% CO2, and 95% humidity. Cells are expanded until reaching 70-95% confluency at which point they are subcultured or harvested for assay use. A serial dilution of test compound is dispensed into a 96-well black clear bottom plate in triplicate. Three thousand cells are added per well in 200 μL complete growth medium in the 96-well plate. Plates are incubated for 67-72 hours at 37° C., 5% CO2, and 95% humidity. At the end of the incubation, 40 μL of a 440 μM solution of resazurin (Sigma, #199303, St. Louis, MO) in PBS is added to each well of the plate and plates are incubated for an additional 6-7 hours at 37° C., 5% CO2, and 95% humidity. Plates are read on a Synergy2 or equivalent reader (Biotek, Winooski VT) using an excitation of 540 nm and an emission of 600 nm. Data is analyzed using Prism software (GraphPad, San Diego, CA) to calculate IC50 values.

[8] = test system: Miapaca-2 cells; assay: MiaPaca-2 Combination Cell proliferation Assay (1) with cobimetinib; format: cell-based; details: MiaPaca-2 cell proliferation, read-out: MiaPaca-2 Combo (1) IC50
Experimental: MiaPaca-2 Combination Cell proliferation Assay (1)
Miapaca-2 cells (catalog #CRL-1420) are obtained from the American Type Culture Collect (ATCC, Manassas, VA). Briefly, cells were grown in DMEM supplemented with 10% characterized fetal bovine serum (Invitrogen, Carlsbad, CA), 2.5% New Zealand sourced horse serum and 1% Penicillin/Streptomycin/L-Glutamine at 37° C., 5% CO2, and 95% humidity. Cells are expanded until reaching 70-95% confluency at which point they are subcultured or harvested for assay use. A serial dilution of test compound was dispensed into multiple 96-well black clear bottom plates in triplicate. A serial dilution of complete growth medium containing cobimetinib was prepared at twice the final concentration and 100 μL was dispensed across the test compound titration in triplicate. Three thousand cells are added per well in 100 μL complete growth medium in each 96-well plate. Plates are incubated for 67-72 hours at 37° C., 5% CO2, and 95% humidity. At the end of the incubation, 40 μL of a 440 μM solution of resazurin (Sigma, St. Louis, MO) in PBS is added to each well of the plate and plates are incubated for an additional 5-7 hours at 37° C., 5% CO2, and 95% humidity. Plates are read on a Synergy2 or equivalent reader (Biotek, Winooski VT) using an excitation of 540 nm and an emission of 600 nm. Drug synergy was assessed via BLISS analysis in the Combenefit software (Cancer Research UK Cambridge Institute, Cambridge, UK). Data is analyzed using Prism software (Graphpad, San Diego, CA) to calculate IC50 values. Shifts in test compound IC50 values are reported from top-constrained combination therapy curves.

[9] = biological target: B-Raf (V600E) (SEQ. ID NO: 4) kinase (Homo sapiens (Human), UniProt P15056, V600E); assay: Biochemical Assay for B-Raf (V600E) (1); details: Table J, BRAF V600E, assay version (1); read-out: BRAF VE (1) IC50
Method in brief: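 Coupled pyruvate kinase/lactate dehydrogenase assay: 0.03 nM B-Raf V600E, 30.1 nM MEK, 1 mM ATP, pH 7.5 Tris/MgCl2 buffer, 1% DMSO. NADH oxidation followed at 340 nm for 6 h at 30 °C; rate from 3–4 h converted to percent inhibition, IC50 by four-parameter fit.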

B-Raf kinase (SEQ. ID NO: 2), sequence (P15056 416-766): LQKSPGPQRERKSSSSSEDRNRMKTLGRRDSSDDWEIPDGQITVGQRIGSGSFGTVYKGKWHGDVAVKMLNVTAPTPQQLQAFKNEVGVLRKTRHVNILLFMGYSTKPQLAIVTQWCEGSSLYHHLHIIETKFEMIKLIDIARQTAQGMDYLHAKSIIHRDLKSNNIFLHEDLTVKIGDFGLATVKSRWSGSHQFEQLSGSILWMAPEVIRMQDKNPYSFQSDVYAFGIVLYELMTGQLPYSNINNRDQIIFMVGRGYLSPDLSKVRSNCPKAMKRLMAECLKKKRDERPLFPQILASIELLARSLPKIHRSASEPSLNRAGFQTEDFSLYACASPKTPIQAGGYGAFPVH
C-Raf kinase (SEQ. ID NO: 3), sequence (P04049 307-648 Y340D/Y341D): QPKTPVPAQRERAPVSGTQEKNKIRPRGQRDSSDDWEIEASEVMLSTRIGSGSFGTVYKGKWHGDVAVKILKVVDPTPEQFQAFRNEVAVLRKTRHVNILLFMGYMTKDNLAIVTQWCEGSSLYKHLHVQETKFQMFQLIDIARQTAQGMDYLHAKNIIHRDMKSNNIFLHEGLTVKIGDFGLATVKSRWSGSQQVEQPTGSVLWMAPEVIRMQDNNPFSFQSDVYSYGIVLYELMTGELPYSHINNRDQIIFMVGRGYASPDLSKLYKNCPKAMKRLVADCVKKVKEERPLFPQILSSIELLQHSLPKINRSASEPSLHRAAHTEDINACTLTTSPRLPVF
A-Raf kinase (SEQ. ID No: 1), sequence (P10398 other isoform, or with tags, fused parts or gaps Y301D (already in the parent)/Y302D (already in the parent)): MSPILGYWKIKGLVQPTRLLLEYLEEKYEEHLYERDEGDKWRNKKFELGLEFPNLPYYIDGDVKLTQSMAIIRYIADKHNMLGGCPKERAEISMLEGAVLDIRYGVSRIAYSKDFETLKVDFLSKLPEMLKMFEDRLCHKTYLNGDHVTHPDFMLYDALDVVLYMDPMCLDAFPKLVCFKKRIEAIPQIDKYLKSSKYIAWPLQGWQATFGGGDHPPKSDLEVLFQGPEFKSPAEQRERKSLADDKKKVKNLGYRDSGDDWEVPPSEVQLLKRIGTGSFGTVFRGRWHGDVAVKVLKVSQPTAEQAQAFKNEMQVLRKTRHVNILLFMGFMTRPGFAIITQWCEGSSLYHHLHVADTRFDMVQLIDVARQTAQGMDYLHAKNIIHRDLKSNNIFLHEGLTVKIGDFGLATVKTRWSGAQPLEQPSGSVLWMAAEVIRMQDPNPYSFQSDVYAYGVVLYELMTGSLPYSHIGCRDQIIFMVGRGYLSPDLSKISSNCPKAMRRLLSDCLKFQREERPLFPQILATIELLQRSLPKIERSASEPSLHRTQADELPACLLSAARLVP
B-Raf (V600E) (SEQ. ID NO: 4) kinase, sequence (P15056 416-766 V600E): as the sequence (P15056 416-766) above, with V185E counted along it

## Cc1ccc(NC(=O)c2ccnc(C(F)(F)F)c2)cc1-c1cc(-c2ccnc(N)c2)n(C)c(=O)c1 [Example 53]
[1]
  IC50: 1 to 10 µM
[2]
  IC50: 0.1 to 0.5 µM
[3]
  IC50: 1 to 10 µM
[4]
  IC50: 1 to 10 µM
[5]
  IC50: 0.5 to 1 µM

## Cc1ccc(NC(=O)c2ccnc(C(C)(C)C#N)c2)cc1-c1ccnc(-c2ccncc2)c1 [Example 55]
[6]
  IC50: 1 to 10 µM
[1]
  IC50: 0.5 to 1 µM
[3]
  IC50: 1 to 10 µM

## Cc1ccc(NC(=O)c2ccnc(C(F)(F)F)c2)cc1-c1cccc(-c2ccnc(NC(=O)C3CC3)c2)c1 [Example 58]
[6]
  IC50: 1 to 10 µM
[1]
  IC50: 0.1 to 0.5 µM
[7]
  IC50: 0.1 to 0.5 µM
[3]
  IC50: 1 to 10 µM
[4]
  IC50: ≤ 0.1 µM

## Cc1ccc(NC(=O)c2ccnc(C(C)(C)C#N)c2)cc1-c1cccc(-c2cc(NC(=O)C(C)(C)C)ncn2)c1 [Example 210]
[8]
  IC50: 0.1 to 0.5 µM
[2]
  IC50: 0.5 to 1 µM
[9]
  IC50: ≤ 0.1 µM
[3]
  IC50: 1 to 10 µM
[5]
  IC50: 0.5 to 1 µM

## CNc1cc(-c2cccc(-c3cc(NC(=O)c4ccnc(C(C)(C)C#N)c4)cnc3C)c2)ncn1 [Example 227]
[1]
  IC50: 1 to 10 µM
[2]
  IC50: 0.1 to 0.5 µM
[3]
  IC50: 1 to 10 µM
[4]
  IC50: 1 to 10 µM
[5]
  IC50: 0.1 to 0.5 µM

## Cc1ccc(NC(=O)c2cc(C3CC3)n(C)n2)cc1-c1ccnc(-c2ccnc(NC(=O)C3CC3)c2)n1 [Example 236]
[6]
  IC50: 1 to 10 µM
[1]
  IC50: 1 to 10 µM
[7]
  IC50: 0.5 to 1 µM
[4]
  IC50: 0.1 to 0.5 µM

## COC(=O)Nc1cc(-c2cncc(-c3cc(NC(=O)c4ccnc(C(C)(F)F)c4)ccc3C)c2)ncn1 [Example 238]
[6]
  IC50: 1 to 10 µM
[1]
  IC50: ≤ 0.1 µM
[8]
  IC50: 0.1 to 0.5 µM
[7]
  IC50: ≤ 0.1 µM
[4]
  IC50: 0.1 to 0.5 µM

## Cc1ccc(NC(=O)c2cnnc(C3CC3)c2)cc1-c1nccc(-c2ccnc(NC(=O)C3CC3)c2)n1 [Example 272]
[6]
  IC50: 1 to 10 µM
[1]
  IC50: 1 to 10 µM
[7]
  IC50: 0.1 to 0.5 µM
[3]
  IC50: 1 to 10 µM
[4]
  IC50: 0.1 to 0.5 µM
